Reference: US20220062273A1, “CONJUGATES OF PATTERN RECOGNITION RECEPTOR AGONISTS” (Ascendis Pharma Oncology Division A/S, priority 2019, published 2022)

Columns and labels:
Assay type in all cases: in vivo, BALB/C mice
[1] = system: peripheral blood mononuclear cells (PBMC); assay: PBMC gene expression (qPCR), 6 hours post-treatment
Method: Hydrogels were administered as suspensions in PTP buffer. […] Tumors were excised, weighed and snap frozen. […] For PBMC isolations, approximately 600 μl of whole blood was collected via cardiac puncture. The collected whole blood from each individual mouse was diluted with a 1:1 ratio of pre-warmed PBS supplemented with 2% Fetal Bovine Serum (FBS). Then an equal volume of Histopaque-1083 was added to a new sterile 15 mL conical tube, where the diluted whole blood was layered over the Histopaque-1083. The mixture was then centrifuged at 400 g for 30 minutes. The top plasma layer was discarded, and the white translucent interlayer (mononuclear cells) was carefully transferred to a new sterile centrifuge tube. The mononuclear cells were then washed with PBS supplemented with 2% FBS and then were spun down at 250 g for 10 minutes. […] RNA concentrations were measured using a NanoDrop (ThermoFisher) and then adjusted to […] with RNase-free water. RNA quality was assessed using a NanoDrop (ThermoFisher). […] 200 ng of cDNA was used for quantitative PCR using the RT^2 SYBR Green ROX qPCR Master mix (2X) kit (QIAGEN) following manufacturer's recommendations. […] For each gene, 3 technical replicates were analyzed per biological replicate. Undetermined technical replicate CT values were recorded as zero ΔCT values. 4-5 biological replicates were assessed in total.

[2] = system: Ly-6C+ T cells of CD8+ T cells; assay: Flow cytometric profiling of tumor draining lymph nodes; conditions: tumor draining lymph node, 7 days after randomization
Method: (§1) Hydrogels were administered as suspension in PTP buffer. Some cohorts were further treated with 20 μg human IL-2 (Peprotech, Rocky Hill, N.J.), intraperitoneally (I.P.), twice a day for 5 days. Mice were sacrificed 7 days after randomization (DO). Following sacrifice, tumor draining lymph nodes were isolated from both flanks and were dissociated mechanically to generate a single cell suspension at a cell concentration of 1×10^6 cells per sample. Cell suspensions were centrifuged at 300 g for 5 minutes. Supernatants were discarded and cells were resuspended in FACS buffer with 1 μg/ml Fc-Block and incubated at 4° C. for 10 minutes in the dark. Surface marker antibody mixtures (antibody concentration: 10 μg/mL) in FACS buffer were added to each sample and samples were incubated in the dark at 4° C. for 30 minutes. Cells were centrifuged at 300 g for 5 minutes and supernatants were discarded. Cells were washed and then resuspended with FACS buffer before cytometer collection.
(§2) After collection, FACS data was analyzed using FlowJo Version 10.6.1. Compensation was digitally adjusted using single antibody-stained beads. Samples with less than 90% viability, as determined by LiveDead cell staining, were excluded from the analysis. Cells were defined using the following gating strategy: • 1) Ly-6C^+ antigen presenting cells: FSC-H/FSC-A Singlets/LiveDead^−/CD45^+/CD3^−/CD335^−/Ly-6C^+ • 2) Ly-6C^+ MHCII^+ antigen presenting cells: FSC-H/FSC-A Singlets/LiveDead^−/CD45^+/CD3^−/CD335^−/Ly-6C^+/IA/IE (MHCII)^+ • 3) CD8^+ T cells: FSC-H/FSC-A Singlets/LiveDead^−/CD45^+/CD3^+/CD8 single positive 4) Ly-6C^+ CD8^+ T cells: FSC-H/FSC-A Singlets/LiveDead^−/CD45^+/CD3^+/CD8 single positive/Ly-6C^+

[3] = system: CD8+ T cells of CD3+ T cells; assay: as above; conditions: tumor draining lymph node, 7 days after randomization
Method: as §1, §2

CCOCc1nc2c(N)nc3ccccc3c2n1CC(C)(C)O [Compound 4, Resiquimod]
Il1a Mean (2^ΔΔCT) [1]: 0.41 | Frequency of Ly-6C+ T cells of CD8+ T cells, Mean ([2]; injected right flank): 53.7% | Frequency of Ly-6C+ T cells of CD8+ T cells, Mean ([2]; uninjected left flank): 48% | Frequency of CD8+ T cells of CD3+ T cells, Mean ([3]; injected right flank): 29.23% | Frequency of CD8+ T cells of CD3+ T cells, Mean ([3]; uninjected left flank): 29%
